# From patent publication US20140303092A1 (CHIMERIX, INC., priority 2011, published 2014)
# Test: Study HDP-CDV-201: safety and tolerability (adverse events, laboratory abnormalities, discontinuations)
# Assay type: in vivo, human (adult allogeneic HSCT recipients)
# Protocol: Clinical Studies of HDP-CDV were performed and described in detail in the following Examples. For example, HDP-CDV-201 is a placebo-controlled, dose-escalating trial in HSCT CMV (R+) recipients, evaluating the ability of HDP-CDV to prevent or control CMV infection was carried out. Five cohorts were established in which participants or subjects received either placebo or the HDP-CDV orally, in doses ranging from 40 mg weekly (QW) to 200 mg twice weekly (BIW). Subjects who were post-HSCT were enrolled at the time of engraftment and randomized to HDP-CDV or placebo (3 to 1 ratio) and received blinded therapy until approximately 100 day post-transplantation. HDP-CDV doses were 40 mg QW, 100 mg QW, 200 mg QW, 200 mg BIW and 100 mg BIW. Escalation to the next dose was decided by the data monitoring committee after review of the safety data from the previous Cohort. Subjects who developed CMV disease or CMV infection requiring pre-emptive therapy with local standard of care were discontinued from blinded therapy and followed for 4 weeks. Subjects who completed treatment with blinded therapy were followed for 8 weeks post-therapy.
# Data from Study HDP-CDV-201 also provided characterization of the safety and tolerability profile of HDP-CDV when administered for the prevention or control of CMV infection in high risk (R^+) post-HSCT adult subjects.
# The Safety population (SAFETY) included all randomized subjects who took at least one dose of study treatment. This population was used to summarize safety outcomes based on the treatment actually received, in cases where a subject was treated contrary to the randomization schedule.
# The safety and tolerability profile of HDP-CDV, including subject demographics and Baseline characteristics; the AE profile; and laboratory abnormalities of interest were analyzed in the cohorts followed in this investigation.
# Subjects completing the treatment period received a full course of study medication; those completing the entire study attended visits through 8 weeks of follow up. Subjects who discontinued treatment may have done so for protocol specified reasons (e.g. development of clinically significant CMV infection requiring preemptive treatment with excluded anti-CMV medications) or for other reasons (e.g., withdrawal, adverse events, loss to follow-up). The disposition of subjects in Study HDP-CDV-201 during the double-blind, placebo-controlled treatment period (through Week 11) is listed by dosing Cohort in TABLE 23.
# Adverse events were examined by severity to ensure that all safety signals were identified in this study population. Because of the frequency of events in HSCT recipients, particular attention was given to evaluation of Grade 3 […], 4 (severe), and 5 (fatal) adverse events.
# Only those preferred terms for which at least one Grade 3 or higher event was experienced in any treatment group are listed. Cytomegalovirus-related AEs are excluded from this analysis.
# HDP-CDV is a lipid conjugate of CDV. Because CDV is known to have adverse effects on renal function and bone marrow, decreased GFR and persistent neutropenia were identified as AEs of special interest. Key renal and hematological (TABLE 30) laboratory parameters were measured and listed below by Study HDP-CDV-201 treatment groups. TABLE 30 includes abnormal levels of serum creatinine, neutrophils, platelets, WBCs, and hemoglobin and includes data at Screening and during the treatment period.
# A common metric for unit based dosing of medications is by weight (mg/kg). When the distribution of weights was examined for all subjects participating in the study, the median was 78 kg and the lower 25th percentile weight was approximately 65 kg, which translates to a cut-off of ˜3 mg/kg for a 200 mg total weekly dose. Based upon this approach, a cut-off of 3 mg/kg was used to assess the frequency of diarrhea and associated GI AEs reported for the subjects in Cohorts 3 or 4a (TABLE 40).
smiles,measurement,setting,value
CCCCCCCCCCCCCCCCOCCCOP(=O)(O)COC(CO)Cn1ccc(N)nc1=O (stereo not drawn) [HDP-CDV],"TEAE Hypokalaemia, Grade 3",100 mg BIW,2 (4.0%)
same,"TEAE Hypokalaemia, Grade 4",100 mg BIW,0
same,"TEAE Hypokalaemia, Grade 5",100 mg BIW,0
same,"TEAE Hyponatraemia, Frequency",100 mg BIW,1 (2.0%)
same,"TEAE Hyponatraemia, Grade 2",100 mg BIW,0
same,"TEAE Hyponatraemia, Grade 3",100 mg BIW,0
same,"TEAE Hyponatraemia, Grade 4",100 mg BIW,0
same,"TEAE Hyponatraemia, Grade 5",100 mg BIW,0
same,"TEAE LFT Abnormal, Frequency",100 mg BIW,2 (4.0%)
same,"TEAE LFT Abnormal, Grade 2",100 mg BIW,1 (2.0%)
same,"TEAE LFT Abnormal, Grade 3",100 mg BIW,0
same,"TEAE LFT Abnormal, Grade 4",100 mg BIW,0
same,"TEAE LFT Abnormal, Grade 5",100 mg BIW,0
same,"TEAE Leukocytosis, Frequency",100 mg BIW,2 (4.0%)
same,"TEAE Leukocytosis, Grade 2",100 mg BIW,0
same,"TEAE Leukocytosis, Grade 3",100 mg BIW,1 (2.0%)
same,"TEAE Leukocytosis, Grade 4",100 mg BIW,0
same,"TEAE Leukocytosis, Grade 5",100 mg BIW,0
same,"TEAE Nausea, Frequency",100 mg BIW,17 (34.0%)
same,"TEAE Nausea, Grade 2",100 mg BIW,9 (18.0%)
same,"TEAE Nausea, Grade 3",100 mg BIW,2 (4.0%)
same,"TEAE Nausea, Grade 4",100 mg BIW,0
same,"TEAE Nausea, Grade 5",100 mg BIW,0
same,"TEAE Neutropenia, Frequency",100 mg BIW,10 (20.0%)
same,"TEAE Neutropenia, Grade 2",100 mg BIW,2 (4.0%)
same,"TEAE Neutropenia, Grade 3",100 mg BIW,5 (10.0%)
same,"TEAE Neutropenia, Grade 4",100 mg BIW,2 (4.0%)
same,"TEAE Neutropenia, Grade 5",100 mg BIW,0
same,"TEAE Pneumonia, Frequency",100 mg BIW,5 (10.0%)
same,"TEAE Pneumonia, Grade 2",100 mg BIW,1 (2.0%)
same,"TEAE Pneumonia, Grade 3",100 mg BIW,3 (6.0%)
same,"TEAE Pneumonia, Grade 4",100 mg BIW,0
same,"TEAE Pneumonia, Grade 5",100 mg BIW,1 (2.0%)
same,"TEAE Pyrexia, Frequency",100 mg BIW,10 (20.0%)
same,"TEAE Pyrexia, Grade 2",100 mg BIW,4 (8.0%)
same,"TEAE Pyrexia, Grade 3",100 mg BIW,1 (2%)
same,"TEAE Pyrexia, Grade 4",100 mg BIW,0
same,"TEAE Pyrexia, Grade 5",100 mg BIW,0
same,"TEAE Renal Failure, Frequency",100 mg BIW,5 (10.0%)
same,"TEAE Renal Failure, Grade 2",100 mg BIW,1 (2.0%)
same,"TEAE Renal Failure, Grade 3",100 mg BIW,1 (2.0%)
same,"TEAE Renal Failure, Grade 4",100 mg BIW,1 (2.0%)
same,"TEAE Renal Failure, Grade 5",100 mg BIW,0
same,"TEAE Staphylococcal Bacteremia, Frequency",100 mg BIW,6 (12.0%)
same,"TEAE Staphylococcal Bacteremia, Grade 2",100 mg BIW,2 (4.0%)
same,"TEAE Staphylococcal Bacteremia, Grade 3",100 mg BIW,3 (6.0%)
same,"TEAE Staphylococcal Bacteremia, Grade 4",100 mg BIW,0
same,"TEAE Staphylococcal Bacteremia, Grade 5",100 mg BIW,0
same,"TEAE Thrombocytopenia, Frequency",100 mg BIW,7 (14.0%)
same,"TEAE Thrombocytopenia, Grade 2",100 mg BIW,1 (2.0%)
same,"TEAE Thrombocytopenia, Grade 3",100 mg BIW,1 (2.0%)
same,"TEAE Thrombocytopenia, Grade 4",100 mg BIW,2 (4.0%)
same,"TEAE Thrombocytopenia, Grade 5",100 mg BIW,0
same,"TEAE Vomiting, Frequency",100 mg BIW,22 (44.0%)
same,"TEAE Vomiting, Grade 2",100 mg BIW,8 (16.0%)
same,"TEAE Vomiting, Grade 3",100 mg BIW,2 (4.0%)
same,"TEAE Vomiting, Grade 4",100 mg BIW,0
same,"TEAE Vomiting, Grade 5",100 mg BIW,0
same,subjects requiring treatment with steroids during the study,100 mg BIW,72%
same,subjects who interrupted HDP-CDV due to an adverse event,100 mg BIW Cohort,17 out of 50
same,Subjects Reporting Diarrhea as an AE,"100 mg BIW, n = 50",26 (52.0%)
same,Discontinuation: Death,"100 mg BIW, active treatment period",4 (8.0%) Subject n (%)
same,Discontinuation: Adverse event,"100 mg BIW, active treatment period through Week 11",8 (16.0%) Subject n (%)
same,"TEAE ALT increased, Frequency",100 mg QW,1 (3.7%)
same,"TEAE ALT increased, Grade 2",100 mg QW,0
same,"TEAE ALT increased, Grade 3",100 mg QW,1 (3.7%)
same,"TEAE ALT increased, Grade 4",100 mg QW,0
same,"TEAE ALT increased, Grade 5",100 mg QW,0
same,"TEAE AML, Recurrent, Frequency",100 mg QW,0
same,"TEAE AML, Recurrent, Grade 2",100 mg QW,0
same,"TEAE AML, Recurrent, Grade 3",100 mg QW,0
same,"TEAE AML, Recurrent, Grade 4",100 mg QW,0
same,"TEAE AML, Recurrent, Grade 5",100 mg QW,0
same,"TEAE AST increased, Frequency",100 mg QW,1 (3.7%)
same,"TEAE AST increased, Grade 2",100 mg QW,1 (3.7%)
same,"TEAE AST increased, Grade 3",100 mg QW,0
same,"TEAE AST increased, Grade 4",100 mg QW,0
same,"TEAE AST increased, Grade 5",100 mg QW,0
same,"TEAE Abdominal pain, Frequency",100 mg QW,2 (7.4%)
same,"TEAE Abdominal pain, Grade 2",100 mg QW,0
same,"TEAE Abdominal pain, Grade 3",100 mg QW,1 (3.7%)
same,"TEAE Abdominal pain, Grade 4",100 mg QW,0
same,"TEAE Abdominal pain, Grade 5",100 mg QW,0
same,"TEAE Acute GVHD, Frequency",100 mg QW,7 (25.5%)
same,"TEAE Acute GVHD, Grade 2",100 mg QW,4 (14.8%)
same,"TEAE Acute GVHD, Grade 3",100 mg QW,2 (7.3%)
same,"TEAE Arthralgias, Frequency",100 mg QW,3 (11.1%)
same,"TEAE Arthralgias, Grade 2",100 mg QW,0
same,"TEAE Arthralgias, Grade 3",100 mg QW,0
same,"TEAE Arthralgias, Grade 4",100 mg QW,0
same,"TEAE Arthralgias, Grade 5",100 mg QW,0
same,"TEAE Back Pain, Frequency",100 mg QW,2 (7.4%)
same,"TEAE Back Pain, Grade 2",100 mg QW,0
same,"TEAE Back Pain, Grade 3",100 mg QW,0
same,"TEAE Back Pain, Grade 4",100 mg QW,0
same,"TEAE Back Pain, Grade 5",100 mg QW,0
same,"TEAE Decreased appetite, Frequency",100 mg QW,5 (18.5%)
same,"TEAE Decreased appetite, Grade 2",100 mg QW,2 (7.4%)
same,"TEAE Decreased appetite, Grade 3",100 mg QW,0
same,"TEAE Decreased appetite, Grade 4",100 mg QW,0
same,"TEAE Decreased appetite, Grade 5",100 mg QW,0
same,"TEAE Diarrhea, Frequency",100 mg QW,8 (29.6%)
same,"TEAE Diarrhea, Grade 2",100 mg QW,3 (11.1%)
same,"TEAE Diarrhea, Grade 3",100 mg QW,0
same,"TEAE Diarrhea, Grade 4",100 mg QW,0
same,"TEAE Diarrhea, Grade 5",100 mg QW,0
same,"TEAE Fatigue, Frequency",100 mg QW,3 (11.1%)
same,"TEAE Fatigue, Grade 2",100 mg QW,0
same,"TEAE Fatigue, Grade 3",100 mg QW,0
same,"TEAE Fatigue, Grade 4",100 mg QW,0
same,"TEAE Fatigue, Grade 5",100 mg QW,0
